Experiments:
[1] = test system: FAJ-N1C0 recombinant β-galactoside-α2,3-sialyltransferase; assay: Acceptor substrate specificity of recombinant β-galactoside-α2,3-sialyltransferase (mono-, disaccharides); assay type: biochemical, Vibrio sp.; set-up: FAJ-N1C0 Sialyltransferase activity Relative activity (%): tested at 42 mM; settings: 20° C., 14 hours
From the text: (§1) Cell homogenates prepared from E. coli cells introduced with the third clone of ISH467-N2C0, the first clone of ISH224-N1C0 and the first clone of FAJ-N1C0 were each purified by ion exchange chromatography and hydroxyapatite chromatography to give an electrophoretically single band. The thus purified β-galactoside-α2,3-sialyltransferases were used in the following experiment in order to examine the presence or absence of sialyltransferase activity toward various monosaccharides, disaccharides and trisaccharides.
(§2) A reaction solution (24 μl) was prepared to contain CMP-^14C-NeuAc-containing CMP-NeuAc as a glycosyl donor substrate ([…], final concentration in the reaction solution: […]), any of various glycosyl acceptor substrates dissolved in 20 mM cacodylate buffer (pH 5.0) (1 μmol, final concentration in the reaction solution: 42 mM), sialyltransferase (in an amount as indicated in the footnotes of the tables below) and NaCl (final concentration in the reaction solution: 500 mM), and reacted under conditions as indicated in the footnotes of the tables below. The monosaccharides used as glycosyl acceptor substrates were the following 10 types: methyl-α-D-galactopyranoside (Gal-α-OMe), methyl-(β-D-galactopyranoside (Gal-β-OMe), methyl-α-D-glucopyranoside (Glc-α-OMe), methyl-β-D-glucopyranoside (Glc-β-OMe), methyl-α-D-mannopyranoside (Man-α-OMe), methyl-β-D-mannopyranoside (Man-β-OMe), methyl-α-D-fucopyranoside (Fuc-α-OMe), methyl-β-D-fucopyranoside (Fuc-β-OMe), N-acetylgalactosamine (GalNAc), and N-acetylglucosamine ([…]). The disaccharides used were the following 5 types: lactose (Gal-β1,4-Glc), N-acetyllactosamine (Gal-β1,4-GlcNAc), methyl-β-D-galactopyranosyl-β1,3-N-acetylglucosaminide (Gal-β1,3-GlcNAc-β-OMe), methyl-α-D-galactopyranosyl-α1,3-galactopyranoside (Gal-α-1,3-Gal-α-OMe), and methyl-β-D-galactopyranosyl-β1,3-galactopyranoside (Gal-β1,3-Gal-β-OMe). The trisaccharide used was 2′-fucosyllactose (Fuc-α1,2-Galβ1,4-Glc). It should be noted that the final concentration was set to 8.4 mM for the sugar chains shown in Table 18, i.e., methyl-α-D-galactopyranosyl-α1,3-galactopyranoside (Gal-α1,3-Gal-α-OMe), methyl-β-D-galactopyranosyl-β1,3-galactopyranoside (Gal-β1,3-Gal-β-OMe) and 2′-fucosyllactose (Fuc-α1,2-Gal-β1,4-Glc).
(§3) After completion of the enzymatic reaction, 1.98 ml of 5 mM phosphate buffer (pH 6.8) was added to the reaction solution to stop the enzymatic reaction. Then, the enzymatic reaction solution was diluted with 5 mM phosphate buffer (pH 6.8) and applied in a volume of 2 ml to a AG1−×2 Resin (PO4^3− form, 0.2×2 cm) column. This column was prepared as follows: AG1-x 2 Resin (OH^− form, BIO-RAD) was suspended in 1 M phosphate buffer (pH 6.8), and after 30 minutes, the resin was washed with distilled water and then suspended in distilled water. The eluate (0 to 2 ml) from this column was measured for its radioactivity. The eluate from this column contains the unreacted glycosyl acceptor substrate and the ^14C-NeuAc (N-acetylneuraminic acid)-bound reaction product which was generated by the reaction, but unreacted CMP-14C-NeuAc is still retained on the column. Thus, the radioactivity of ^14C from each sialic acid-containing sugar chain generated as a result of the enzymatic reaction arises exclusively from the reaction product, so that the radioactivity of this fraction can be used to calculate the enzyme activity.
(§4) In the manner described above, the radioactivity of NeuAc transferred to each glycosyl acceptor substrate was measured to calculate the amount of transferred sialic acid.

[2] = test system: ISH467-N2C0 recombinant β-galactoside-α2,3-sialyltransferase; assay: Acceptor substrate specificity of recombinant β-galactoside-α2,3-sialyltransferase (mono-, di-, trisaccharides); assay type: biochemical, Photobacterium phosphoreum
From the text: as §1, §2, §3, §4

[3] = test system: α2,3-sialyltransferase derived from strain JT-ISH-467; assay: Sialic acid transfer to monosaccharides and disaccharides by partially purified α2,3-sialyltransferase (CMP-14C-NeuAc donor, radioactivity of column eluate); assay type: biochemical, Photobacterium phosphoreum; settings: 25° C., 4 hours; acceptor 10 μmol (200 mM); CMP-14C-NeuAc 400 nmol; sialyltransferase 0.13 mU; NaCl 500 mM
Protocol: A cell homogenate prepared from the strain JT-ISH-467 was partially purified by ion exchange chromatography, hydroxyapatite chromatography, and gel filtration chromatography. The thus partially purified α2,3-sialyltransferase was used in the following experiment in order to confirm the transfer of sialic acid to various monosaccharides and disaccharides.
The enzymatic reaction was carried out at 25° C. for 4 hours in a reaction solution (24 μl) prepared to contain CMP-^14C-NeuAc as a glycosyl donor substrate (400 nmol (15600 cpm), final concentration in the reaction solution: 16.6 mM), any of various glycosyl acceptor substrates (10 μmol, final concentration in the reaction solution: 200 mM), sialyltransferase (0.13 mU) and NaCl (final concentration in the reaction solution: 500 mM). The monosaccharides and disaccharides used as glycosyl acceptor substrates were the following 6 substances: methyl-α-D-galactopyranoside (Gal-α-OMe), methyl-β-D-galactopyranoside (Gal-β-OMe), N-acetylgalactosamine (GalNAc), lactose (Gal-β1,4-Glc), N-acetyllactosamine (Gal-β1,4-GlcNAc), and methyl-β-D-galactopyranosyl-β-1,3-N-acetylglucosaminide (Gal-β1,3-GlcNAc-β-OMe).
as §3, with “AG1-×2” for “AG1−×2”, “AG1-×2” for “AG1-x 2”, “CMP-^14C-NeuAc” for “CMP-14C-NeuAc”
as §4

[4] = test system: ISH224-N1C0 recombinant β-galactoside-α2,3-sialyltransferase; assay: Acceptor substrate specificity of recombinant β-galactoside-α2,3-sialyltransferase (mono-, di-, trisaccharides); assay type: biochemical, Photobacterium sp.
From the text: as §1, §2, §3, §4

[5] = Table 16: 1 μmol acceptor, pH 5.0, about 2.5 mU enzyme, 20° C., 14 hours
[6] = Table 16: activity toward lactose set to 100, 20° C., 14 hours
[7] = Table 17: activity toward lactose set to 100, 30° C., 0.5 minutes or 2 minutes

## CO[C@@H]1O[C@H](CO)[C@@H](O)[C@H](O[C@@H]2O[C@H](CO)[C@H](O)[C@H](O)[C@H]2O)[C@H]1NC(C)=O [methyl-β-D-galactopyranosyl-β1,3-N-acetylglucosaminide]
[1]; Table 16: 1 μmol acceptor, pH 5.0, about 2.5 mU enzyme
  FAJ-N1C0 Sialyltransferase activity: 9.4 nmol/min
[1]; Table 16: activity toward lactose set to 100
  FAJ-N1C0 Sialyltransferase activity Relative activity (%): 124%
[2]; [5]
  ISH467-N2C0 Sialyltransferase activity: 9.6 nmol/min
[2]; [6]
  ISH467-N2C0 Sialyltransferase activity Relative activity (%): 122%
[2]; Table 17: 1 μmol acceptor, pH 5.0, 2.3 mU per reaction, 30° C., 0.5 minutes or 2 minutes
  ISH467-N2C0 Sialyltransferase activity: 2.95 nmol/min
[2]; [7]
  ISH467-N2C0 Sialyltransferase activity Relative activity (%): 129%
[3]
  Amount of transferred sialic acid: 71.1 nmol
[4]; [5]
  ISH224-N1C0 Sialyltransferase activity: 9.4 nmol/min
[4]; [6]
  ISH224-N1C0 Sialyltransferase activity Relative activity (%): 111%
[4]; Table 17: 1 μmol acceptor, pH 5.0, 1.0 mU per reaction, 30° C., 0.5 minutes or 2 minutes
  ISH224-N1C0 Sialyltransferase activity: 1.98 nmol/min
[4]; [7]
  ISH224-N1C0 Sialyltransferase activity Relative activity (%): 192%

From patent US8030043B2, “β-galactoside-α2,3-sialyltransferase, a gene encoding thereof, and a method for producing thereof” (Japan Tobacco Inc., priority 2005, dated 2011)
